Publication PMC6193536 (Bioorganic & medicinal chemistry letters, 2018)
Read-outs that look alike come from different tables or passages of the source.

Experiments:
Plasmodium falciparum [1] = assay: hypoxanthine incorporation assay; assay type: cell-based
PfPKG [2] = target: T1, PfPKG (Plasmodium falciparum, UniProt Q8I719); conditions: data unpublished
PfPKG [3] = target: T1, PfPKG; conditions: cited from earlier work
Plasmodium falciparum [4] = conditions: cited from earlier work

T1 sequence (Q8I719 whole entry): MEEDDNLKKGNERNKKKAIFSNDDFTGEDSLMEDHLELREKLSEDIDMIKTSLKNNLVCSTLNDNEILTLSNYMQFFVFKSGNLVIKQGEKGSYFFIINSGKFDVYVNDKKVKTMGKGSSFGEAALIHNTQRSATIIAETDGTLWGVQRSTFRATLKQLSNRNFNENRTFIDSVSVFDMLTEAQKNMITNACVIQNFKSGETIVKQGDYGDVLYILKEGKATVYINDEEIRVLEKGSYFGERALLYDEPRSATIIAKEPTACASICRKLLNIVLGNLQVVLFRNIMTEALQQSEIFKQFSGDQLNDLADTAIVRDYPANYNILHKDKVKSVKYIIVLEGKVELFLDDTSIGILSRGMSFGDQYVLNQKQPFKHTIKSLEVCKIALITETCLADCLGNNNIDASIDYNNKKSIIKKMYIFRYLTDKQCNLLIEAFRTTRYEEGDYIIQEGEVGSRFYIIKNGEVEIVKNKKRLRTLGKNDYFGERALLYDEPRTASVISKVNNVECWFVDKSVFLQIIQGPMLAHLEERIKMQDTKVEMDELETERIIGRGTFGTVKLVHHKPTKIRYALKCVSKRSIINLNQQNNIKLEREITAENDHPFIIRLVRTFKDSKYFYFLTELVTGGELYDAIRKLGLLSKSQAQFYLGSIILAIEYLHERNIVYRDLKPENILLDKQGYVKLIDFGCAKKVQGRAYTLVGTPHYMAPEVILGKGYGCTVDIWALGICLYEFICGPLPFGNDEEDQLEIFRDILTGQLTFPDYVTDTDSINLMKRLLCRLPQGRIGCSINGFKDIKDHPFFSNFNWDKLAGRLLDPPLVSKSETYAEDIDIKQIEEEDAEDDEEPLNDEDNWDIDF

CN1CCC(c2cc(-c3ccncc3)c(-c3ccc(F)cc3)[nH]2)CC1 [compound 1]
potency in HXI cell viability assay (Plasmodium falciparum [1]; data unpublished): moderate potency | potency in biochemical assay against PfPKG (PfPKG [2]): low nanomolar potencies | kinase selectivity (other human kinases) (panel of human kinases): poor kinase selectivity

CN(C)Cc1ccn2c(-c3ccnc(N)n3)c(-c3ccc(F)cc3)nc2c1 [compound 2]
potency in biochemical assay against PfPKG (PfPKG [3]): low nanomolar potencies | potency in HXI cell viability assay (Plasmodium falciparum [4]): moderate potency

CN1CCC(c2nc(-c3ccc(F)c(NS(C)(=O)=O)c3)c(-c3ccnc(NCC4CC4)n3)s2)CC1 [compound 23]
improvement in cellular potency over compound 1 (Plasmodium falciparum [1]; versus compound 1): 4 fold
